pKi: −log10 of the molar value.

T1 sequence (Q16602 23-461): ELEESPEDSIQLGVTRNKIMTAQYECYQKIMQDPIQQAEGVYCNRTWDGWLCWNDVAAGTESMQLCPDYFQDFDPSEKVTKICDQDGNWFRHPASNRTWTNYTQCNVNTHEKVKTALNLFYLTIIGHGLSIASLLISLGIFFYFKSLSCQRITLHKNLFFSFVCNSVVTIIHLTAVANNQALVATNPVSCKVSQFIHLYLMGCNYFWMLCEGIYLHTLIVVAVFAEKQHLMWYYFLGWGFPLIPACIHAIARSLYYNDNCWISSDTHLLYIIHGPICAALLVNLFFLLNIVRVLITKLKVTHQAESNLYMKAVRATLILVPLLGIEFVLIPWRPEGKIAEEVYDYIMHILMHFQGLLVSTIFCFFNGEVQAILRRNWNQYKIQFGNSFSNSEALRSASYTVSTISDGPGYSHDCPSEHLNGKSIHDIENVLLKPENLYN
T1 sequence (O60894 27-148): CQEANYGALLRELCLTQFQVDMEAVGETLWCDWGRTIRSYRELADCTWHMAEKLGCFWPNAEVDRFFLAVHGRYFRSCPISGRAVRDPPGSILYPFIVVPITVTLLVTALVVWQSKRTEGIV

The assay has as its target T1, human CGRP receptor (Homo sapiens, UniProt O60894+Q16602).
T1 construct: SK-N-MC membranes (˜20 μg protein) are incubated for 180 minutes at ambient temperature; endogenous in cells; host or cells: SK-N-MC cells (membranes)
In words: Binding studies with SK-N-MC cells (expressing the human CGRP receptor). The following applies: SK-N-MC membranes, 50 pM 125I-iodotyrosyl-CGRP, 180 minutes at ambient temperature. The protocol: A. Binding Studies with SK-N-MC Cells (Expressing the Human CGRP Receptor)
SK-N-MC membranes (˜20 μg protein) are incubated for 180 minutes at ambient temperature with 50 pM ^125I-iodotyrosyl-Calcitonin-Gene-Related Peptide and increasing concentrations of the test substances in a total volume of 250 μl (assay buffer: 10 mM tris, 50 mM NaCl, 5 mM MgCl2, 1 mM EDTA, pH=7.4). The incubation is ended by rapid filtration through GF/B-glass fibre filters treated with polyethyleneimine (0.1%) using a cell harvester. The protein-bound radioactivity is measured using a gamma counter. Non-specific binding is defined as the bound radioactivity after the presence of 1 μM BIBN4096BS during incubation.
The concentration binding curves are analysed using computer-aided non-linear curve fitting.
By pKi is commonly meant the negative decadic logarithm of the Ki, by convention in mol/L. Consider `COc1ccc2c(c1)CCN(C1CCN(c3cc(C(=O)N4Cc5cn[nH]c5C(C)(C)C4)ncn3)CC1)C(=O)N2` [(8)], for which the pKi is 8.40.
The value for `O=C(c1cc(N2CCC(n3c(=O)[nH]c4ncccc43)CC2)ncn1)N1CCC2CCCCC21` (stereo not drawn) [(11)] was 7.47; that for `O=C(c1cc(N2CCC(n3nc(-c4ccccc4)[nH]c3=O)CC2)ncn1)N1CCc2ccccc21` [(15)] was 7.68.
The molecule `O=C(c1cc(N2CCC(n3c(=O)[nH]c4ncccc43)CC2)ncn1)N1Cc2ccccc2C1` [(17)] had a pKi of 6.93. Compared with the last molecule, the pKi is 0.75 log units lower.
With `O=C(c1cc(N2CCC(n3c(=O)[nH]c4ncccc43)CC2)ncn1)N1CCc2cc(F)ccc21` [(36)], the negative logarithm of the Ki (pKi) is 8.30.
The value for `CC1(C)CN(C(=O)c2cc(N3CCC(n4c(=O)[nH]c5ncccc54)CC3)ncn2)c2ccc(F)cc21` [(37)] was 8.70; that for `O=C(c1cc(N2CCC(n3c(=O)[nH]c4ncccc43)CC2)ncn1)N1CC(CCCN2CCCC2)c2ccccc21` (stereo not drawn) [(41)] was 7.68; that for `CC1(C)CCN(C(=O)c2cc(N3CCC(n4c(=O)[nH]c5ncccc54)CC3)ncn2)C1` [(50)] was 6.16.
Molecule `CC1(C)CN(C(=O)c2cc(N3CCC(n4c(=O)[nH]c5ncccc54)CC3)ncn2)Cc2ccccc21` [(55)] showed a pKi of 8.52.

(Values after patent US8829006B2, “Compounds” (Boehringer Ingelheim International GmbH, priority 2007, dated 2014).)
